In assay [1] the test system is carrageenin foot edema in male Wistar rats. As to the kind of experiment: Inhibition of carrageenin foot edema in rats (Winter et al.). The class given is in vivo. The settings on record: Rattus norvegicus, 2 h after irritant. The procedure: A similar volume of isotonic sodium chloride solution was injected in the left hind foot. The volume of the each rat's foot was measured plethysmometrically both before and two hours after administration of the irritant, and the swelling of the foot volume after the carrageenin application was compared to the foot which was treated only with sodium chloride solution The inhibition of edema formation by the test substances in the treated animals was compared in percentage terms with the animals of the untreated control group.

Assay [2] concerns oxygen radical-forming activity of peritoneal exudate cells (PEC) of mice. Briefly: Spontaneous CL and induced CL chemiluminescence test: inhibition of oxygen radical liberation from peritoneal exudate cells (30 min preincubation). The class given is cell-based. The arrangement: concentration or dose not given beside the values. Conditions: for Inhibition in vitro of the oxygen radical liberation, Chemiluminescence Test % inhibition, Ind. CL: induced CL, after ZyC3b activation; for Inhibition in vitro of the oxygen radical liberation, Chemiluminescence Test % inhibition, Spnt. CL: spontaneous CL, before ZyC3b. Here is the method: 1. To determine the inhibiting effect on the oxygen radical-forming activity of inflamed cells, the in vitro inhibition of the release of oxygen radicals from activated peritoneal exudate cells (=PEC) of mice was determined in the chemiluminescence (CL) test according to the method of Mueller-Peddinghaus (Int. J. Immunopharmac. 6, 455-466 (1984)). […] The intensity of the chemiluminescence is a measurement of the oxygen radical content in the suspension and thus the degree of activity of the inflamed cells. In this, three functionally different parameters are detected, the spontaneous CL, the induced CL and the peak CL. The spontaneous CL and the induced CL on the one hand and the peak CL on the other hand differ from each other because in the first two parameters the test substances are in contact with the cells for a 30 minute preincubation period before the inflammation irritant is added, whereas with the peak CL the cells are first stimulated, and the test substance is added at the peak of their activity. The measurement of the spontaneous CL thus detects the influence of the test substance on the relative rest activity of inflamed cells, the induced CL represents the effect of the test substances on the activatability of the cells and the inhibition of the peak CL indicates the effect of the test substances on the maximum activity of the inflamed cells. 1.1 Production of PEC suspension used in the test. In order to induce the PEC formation, female mice of 20-25 g body weight were each injected i.p. with 2 ml of a 3% solution of thioglycollate in sterile isotonic sodium chloride solution. Twenty four hours after the thioglycollate injection the cells, which predominantly consisted of polymorphonuclear leucocytes, were recovered by washing out of the abdominal cavity and washed twice. As cell culture medium there was added a commercially available solution under the designation RPMI 1640 (pH 7.2) (produced by Flow Laboratories, […], Germany), which contains 10% fetal calf serum (FCS, produced by Seromed GmbH, Munich, Germany) 18 μmol/l sodium bicarbonate and 2 μmol/l L-glutamine. The cell pellets of four animals each time were resuspended in cell culture medium, collected together and the suspension was made up to 2×10^6 cells per ml with cell culture medium. The cell suspensions were kept under ice cooling until their use the same day. 1.2 Production of the complement opsonized zymosan (=ZyC3 b) suspension used for activation. 200 mg zymosan (glycoprotein mixture isolated from the cell walls of brewer's yeast, Sacchomyces […], produced by Sigma Chemical Co., Munich, Germany) were suspended in 10 ml phosphate buffer solution according to Dulbecco (produced by Flow Laboratories, […], Germany), well stirred and heated for thirty minutes in a water bath to 100° C. After cooling, it was centrifuged for five minutes at 4° C. and at 600 ×g and the supernatant was discarded. The sediment was resuspended in 50 ml human serum and incubated for thirty minutes at 37° C. in a shaking water bath. Then it was centrifuged for five minutes at 600 ×g and 420 C., the supernatant decanted and the sediment washed with phosphate buffer solution. The working suspension of 8×10^-3 g ZyC3 b/ml was produced from the sediment by dilution with phosphate buffer solution (Mueller-Peddinghaus et al., Zbl. Vet. Med. B. 30, 559-575). 1.3 Chemiluminescence (CL) measurement (Peak-CL). […] At the end of this preincubation phase, 100 μl lucigenin were added, and in the course of the subsequent sixteen minute incubation phase the spontaneous CL parameter was determined with two measuring points. Then 100 μl ZyC3 b+100 μl phosphate buffer were added, and during the course of the subsequent twenty-four minute cell activation the induced CL parameter was measured with three measuring points. All measurements were determined twice. The parameters spontaneous CL and induced CL were determined on the same day with two separate cell pools.

Another assay relates to Lipoxygenase. As to the kind of experiment: LTB4 synthesis and inhibition test (lipoxygenase inhibition in vitro) in polymorphonuclear leucocytes. The class given is cell-based. The settings on record: Homo sapiens, PMNL, 10^-4 Mol/l, Ca-ionophore A 23187, arachidonic acid, read-out: Lipoxygenase inhib. in vitro, % inhibition of the LTB4 synthesis at 10^-4 Mol/l. The procedure:
2. In order to investigate the lipoxygenase-inhibiting properties, the inhibiting effect of the substances on the biosynthesis of leucotriene B4 (=LTB4) from arachidonic acid by activated inflamed cells was determined in vitro. Leucotriene B4, a dihydroxy fatty acid which plays an important role not only in the inflammation but also in allergic reactions was oxidatively formed, starting from arachidonic acid, by oxidation through the action of the enzyme lipoxygenase.
LTB4 Synthesis and Inhibition Test.
The combined extracts were evaporated under vacuum to dryness and the residue was taken up in 0.5 ml 30% aqueous methanol and was analyzed with the aid of high pressure liquid chromatography with phase reversal (=reversed phase-HPLC). The stationary phase (=separating medium) consisted of silica gel containing octadecyl groups chemically bound thereto (=RSIL C18 HP; produced by Autech, Darfield, Ill.). The solvent mixture is methanol:water:acetic acid (67:33:0.1; v/v/v), which had been adjusted to a pH value of 6.2 with NH3 /H2 O. The flow velocity was 1 ml/min. […] The LTB4 signals were compared with those of the control (cell incubation with solvent) and reported as percent inhibition of LTB4 synthesis compared with the controls.

Assay [3] has as its system oxygen radical-forming activity of activated peritoneal exudate cells (PEC) of mice. As to the kind of experiment: Peak chemiluminescence (CL) test: inhibition of oxygen radical liberation from activated peritoneal exudate cells. The class given is cell-based. Conditions: Mus musculus, 10^-4 Mol substance/l, added at peak of cell activity, read-out: Inhibition in vitro of the oxygen radical liberation, Chemiluminescence Test % inhibition, Pk. CL. Here is the method:
1. To determine the inhibiting effect on the oxygen radical-forming activity of inflamed cells, the in vitro inhibition of the release of oxygen radicals from activated peritoneal exudate cells (=PEC) of mice was determined in the chemiluminescence (CL) test according to the method of Mueller-Peddinghaus (Int. J. Immunopharmac. 6, 455-466 (1984)). […] The intensity of the chemiluminescence is a measurement of the oxygen radical content in the suspension and thus the degree of activity of the inflamed cells. In this, three functionally different parameters are detected, the spontaneous CL, the induced CL and the peak CL. The spontaneous CL and the induced CL on the one hand and the peak CL on the other hand differ from each other because in the first two parameters the test substances are in contact with the cells for a 30 minute preincubation period before the inflammation irritant is added, whereas with the peak CL the cells are first stimulated, and the test substance is added at the peak of their activity. The measurement of the spontaneous CL thus detects the influence of the test substance on the relative rest activity of inflamed cells, the induced CL represents the effect of the test substances on the activatability of the cells and the inhibition of the peak CL indicates the effect of the test substances on the maximum activity of the inflamed cells. 1.1 Production of PEC suspension used in the test. In order to induce the PEC formation, female mice of 20-25 g body weight were each injected i.p. with 2 ml of a 3% solution of thioglycollate in sterile isotonic sodium chloride solution. Twenty four hours after the thioglycollate injection the cells, which predominantly consisted of polymorphonuclear leucocytes, were recovered by washing out of the abdominal cavity and washed twice. As cell culture medium there was added a commercially available solution under the designation RPMI 1640 (pH 7.2) (produced by Flow Laboratories, […], Germany), which contains 10% fetal calf serum (FCS, produced by Seromed GmbH, Munich, Germany) 18 μmol/l sodium bicarbonate and 2 μmol/l L-glutamine. The cell pellets of four animals each time were resuspended in cell culture medium, collected together and the suspension was made up to 2×10^6 cells per ml with cell culture medium. The cell suspensions were kept under ice cooling until their use the same day. 1.2 Production of the complement opsonized zymosan (=ZyC3 b) suspension used for activation. 200 mg zymosan (glycoprotein mixture isolated from the cell walls of brewer's yeast, Sacchomyces […], produced by Sigma Chemical Co., Munich, Germany) were suspended in 10 ml phosphate buffer solution according to Dulbecco (produced by Flow Laboratories, […], Germany), well stirred and heated for thirty minutes in a water bath to 100° C. After cooling, it was centrifuged for five minutes at 4° C. and at 600 ×g and the supernatant was discarded. The sediment was resuspended in 50 ml human serum and incubated for thirty minutes at 37° C. in a shaking water bath. Then it was centrifuged for five minutes at 600 ×g and 420 C., the supernatant decanted and the sediment washed with phosphate buffer solution. The working suspension of 8×10^-3 g ZyC3 b/ml was produced from the sediment by dilution with phosphate buffer solution (Mueller-Peddinghaus et al., Zbl. Vet. Med. B. 30, 559-575). 1.3 Chemiluminescence (CL) measurement (Peak-CL). The PEC suspension was divided into samples of 100 μl each, placed in test tubes, and these were incubated for ten minutes at a temperature of 3720 C. in a measurement device (Chemiluminescence analyzer, Laboratorium Prof. Berthold, Wildbad, Germany). Then in order to amplify the chemiluminescence, 100 μl lucigenin solution was added (final concentration 1.54×10^-4 mol/l) and incubated for 16 more minutes. The cells were then activated by the addition of 100 μl of the ZyC3 b suspension produced as described in section 1.2 plus 100 μl phosphate buffer solution. […]

Take `O=C(c1c(-c2cc(O)c(O)c(O)c2)oc2ccccc2c1=O)N1CCN(c2ccccn2)CC1` [Example 10b, 3',4',5'-Trihydroxy-3-{[4-(2-pyridyl)-piperazin-1-yl]-carbonyl}flavone]: the inhibition in vivo at 215 µmol/kg in assay [1] (ip, 215 μmol/kg i.p.) worked out at 35%; in assay [1] (po, 215 μmol/kg p.o.), 30%.
On to `CN1CCN(C(=O)c2c(-c3ccccc3)oc3ccccc3c2=O)CC1` [Example 16a], for which the inhibition in vivo at 100 µmol/kg in assay [1] (po, 100 μmol/kg p.o.) worked out at 20%.
For `CCCCCCCCCCCCCCCCOc1ccc(-c2oc3ccccc3c(=O)c2C(=O)N2CCN(Cc3ccccc3)CC2)cc1` [Example 36], the inhibition in vivo at 215 µmol/kg in assay [1] (po, 215 μmol/kg p.o.) is 30%.
With `O=C(NCCCCN1CCN(c2ncccn2)CC1)c1c(-c2ccccc2)oc2ccccc2c1=O` [Example 25], the inhibition in vivo at 215 µmol/kg in assay [1] (ip, 215 μmol/kg i.p.) was 58%; in assay [1] (po, 215 μmol/kg p.o.), 25%.
Regarding `CC(=O)Oc1cc(-c2oc3ccccc3c(=O)c2C(=O)N2CCN(Cc3ccccc3)CC2)cc(OC(C)=O)c1OC(C)=O` [Example 42b], in assay [2], the “Inhibition in vitro of the oxygen radical liberation, Chemiluminescence Test % inhibition, Ind. CL” value came to 100% and the “Inhibition in vitro of the oxygen radical liberation, Chemiluminescence Test % inhibition, Spnt. CL” value was 99%. In addition, the inhibition at 100 µM in the assay on Lipoxygenase was determined as 100%. The inhibition at 100 µM (stock) in assay [3] came to 99%.
As for `O=C(NCCCC[N+]1([O-])CC[N+]([O-])(c2cccc[n+]2[O-])CC1)c1c(-c2ccccc2)oc2ccccc2c1=O` (stereo not drawn) [Example 26], in assay [2], the “Inhibition in vitro of the oxygen radical liberation, Chemiluminescence Test % inhibition, Ind. CL” value is recorded as 3% and the “Inhibition in vitro of the oxygen radical liberation, Chemiluminescence Test % inhibition, Spnt. CL” value was 13%. Besides, the inhibition at 100 µM with Lipoxygenase is 43%. Also, the inhibition at 100 µM (stock) in assay [3] came out at 10%.
For the compound `O=C(c1c(-c2ccccc2Cl)oc2ccccc2c1=O)N1CCN(c2ccccn2)CC1` [Example 35], the inhibition at 100 µM with Lipoxygenase was 100%.
Take `O=C(c1c(-c2ccc(O)c(O)c2)oc2ccccc2c1=O)N1CCN(c2ccccn2)CC1` [Example 29]: in assay [2], the “Inhibition in vitro of the oxygen radical liberation, Chemiluminescence Test % inhibition, Ind. CL” value is recorded as 74% and the “Inhibition in vitro of the oxygen radical liberation, Chemiluminescence Test % inhibition, Spnt. CL” value amounted to 65%. The inhibition at 100 µM in the assay with Lipoxygenase stood at 97%. Further, in assay [3], the inhibition at 100 µM (stock) amounted to 75%.
With `COc1cc(-c2oc3ccccc3c(=O)c2C(=O)NCCCCN2CCN(c3ccccn3)CC2)cc(OC)c1OC` [Example 6b, 3',4',5'-Trimethoxy-3-{4-[4-(2-pyridyl)-piperazin-1-yl]-butylaminocarbonyl}flavone], the inhibition in vivo at 215 µmol/kg in assay [1] (ip, 215 μmol/kg i.p.) was found to be 75%.
Turning to `COc1cc(-c2oc3ccccc3c(=O)c2C(=O)NCCCC[N+]2([O-])CC[N+]([O-])(Cc3ccccc3)CC2)cc(OC)c1OC` (stereo not drawn) [Example 52], the inhibition in vivo at 215 µmol/kg in assay [1] (ip, 215 μmol/kg i.p.) turned out to be 53%.

Source of the values: patent US4886806A, “Flavone-3-carboxylic acids compounds and pharmaceutical compositions containing them” (Kali-Chemie Pharma GmbH, priority 1987, dated 1989).
